Values of other authors, collected in patent US8329435B2, “Methods for improved uptake of biological molecules” (American Symbolic, LLC, priority 2007, dated 2012).

Details: unmodified glutathione

In the case of N[C@@H](CCC(=O)N[C@@H](CS)C(=O)NCC(=O)O)C(=O)O [glutathione], the “half-life of glutathione in the blood” value (blood) is given as “around 120 seconds” and the “half-life in the blood stream” value (blood stream) is given as “about a minute and a half”.
